The values that follow come from patent US8557823B2, “Family of PFKFB3 inhibitors with anti-neoplastic activities” (Advanced Cancer Therapeutics, LLC, priority 2007, dated 2013).

Some results are limits rather than exact numbers.

Experiment [1] concerns A549 lung carcinoma cells. Kind of experiment: In vitro growth inhibition, A549. In kind it is cell-based. Conditions: human A549. As to the method: (§1) The K562, HL-60, MDA-MB231, and melanoma (CRL-11174) human cancer cell lines were purchased from ATCC (American Tissue Type Culture Collection, Manassas, Va., United States of America). HeLa, A549, Lewis Lung Carcinoma, MDA-MB231, and melanoma cells were grown in Dulbecco's Modified Eagle Medium (DMEM) (Hyclone, Logan, Utah, United States of America) supplemented with 10% fetal bovine serum (Hyclone, Logan, Utah, United States of America) and 50 μg/mL gentamicin sulfate (Invitrogen, Carlsbad, Calif., United States of America). The HL-60, K562, and Jurkat cell lines were grown in RPMI-1640 medium (Hyclone, Logan, Utah, United States of America) supplemented with 10% fetal bovine serum and 50 μg/mL gentamicin sulfate. […]
(§2) Cells were collected 48 hours post-treatment, and cell number and viability were determined by trypan blue exclusion. […]

The subject of experiment [2] is MDA-MB231 breast adenocarcinoma cells. Kind of experiment: In vitro growth inhibition, MDA-MB231. In kind it is cell-based. Conditions: Homo sapiens, MDA-MB-231. As to the method: as §1, §2
For experiment [3], the system named is PFKFB3+/- ht/LT/ras fibroblasts. Kind of experiment: Growth inhibition of PFKFB3 haplo-insufficient transformed fibroblasts. As to conditions: Mus musculus, Fibroblast, 48 hours. The class given is cell-based, mice. The source says:
FIG. 6B is a bar graph showing the anti-proliferative effects of 3PO in fibroblasts from wild-type (+/+) or haplo-insufficient (+/−) PFKFB3 mice which were subsequently immortalized and transformed with human telomerase (ht), large T antigen (LT), and oncogenic H-ras^v12. Cell numbers (expressed as % of cell numbers of control cells) for transformed wild type (+/+) cells are shown in solid bars and numbers for transformed haplo-insufficient (+/−) cells are shown in striped bars. As indicated at the bottom of the graph, cells were incubated with vehicle or increasing amounts of 3PO (5, 10, 20, 30, 40, or 60 μM). Viable cells were counted after 48 hours. The bars represent the mean±STD of triplicate values from a representative experiment. * p-value<0.01 represents statistical difference between vehicle control and 3PO treated samples.
Cells were collected 48 hours post-treatment, and cell number and viability were determined by trypan blue exclusion. IC50 values were calculated as the compound 1 concentration needed for 50% of vehicle treated cell growth.
One of the most difficult challenges of new anti-neoplastic therapies is in situ target validation. To address this question, two different cell lines with varying levels of PFKFB3 expression were studied. […]

Experiment [4] has as its system HL-60 leukemia cell xenografts. Kind of experiment: HL-60 leukemia xenografts in Balb/c nude mice. In kind it is in vivo. Conditions: 0.07 mg/g IP, two daily injections followed by seven days off. How it is done: FIG. 7C is a graph showing the effects of 3PO treatment on the growth of established HL-60 acute promyelocytic leukemia xenografts in Balb/c athymic mice. Tumors were measured daily using blunt end Vernier calipers, and mice with established tumors (130-190 mg) were blindly randomized into either a DMSO control group (•, n=11) or a 3PO treatment group (∘, n=12). Experimental mice were weighed and given intraperitoneal (i.p.) injections of either 50 μL DMSO or 0.07 mg/g 3PO in 50 μL DMSO according to a cyclical dosing regimen of two sequential daily injections of DMSO or 3PO followed by seven day rest period for the duration of the study (14 days). Arrows (↓) represent control or 3PO administrations. Statistical difference was obtained after initial injection with a p-value<0.0001.
Exponentially growing MDA-MB231 and HL-60 cells were collected in appropriate medium, washed twice and resuspended in PBS at a concentration of 20×10^7 cells/mL. […] Body weight and tumor growth were monitored daily throughout the study. Tumor masses were determined by measurement with Vernier calipers using the formula: mass (mg)=[width (mm^2)×length (mm)]/2. […]
The first tumor model tested consisted of mouse Lewis Lung Carcinoma xenografts grown in C57/Blk6 mice. For this study, mice were given IP injections of either DMSO or the calculated dose of 1 once daily for the duration of the study (14 days). […]

One may read the IC50 as the concentration that gives 50% inhibition. Low readings indicate inhibition by little substance, high ones a need for much substance. Take `O=C(/C=C/c1cccnc1)c1ccncc1` [Compound 1, 3-(3-pyridinyl)-1-(4-pyridinyl)-2-propen-1-one]: the concentration for half-maximal inhibition (IC50) in experiment [1] is 24 µM; in experiment [2], 4.7 µM; in experiment [3], 26 µM. Further, the “inhibition of tumor growth compared to DMSO controls” value in experiment [4] is listed as > 74%.
